Test results reported in patent US7897364B2, “Method for determining inhibitors of neurotrypsin” (University of Zurich, priority 2005, dated 2011).
Entries after “also recorded” stand apart in the source; their conditions may differ.

Key:
Kallikrein = molecular target: T1, Kallikrein (Sus scrofa, UniProt P00752); assay: Specificity test, photometric pNA peptide substrate assay: kallikrein; assay type: biochemical, porcine; settings: 100 μM compound; substrate Bz-FVR-pNA; 25° C.
T1 construct: Kallikrein from porcine pancreas; purchased Sigma Aldrich Chemie GmbH; host or cells: porcine pancreas
T1 sequence (P00752 8-246): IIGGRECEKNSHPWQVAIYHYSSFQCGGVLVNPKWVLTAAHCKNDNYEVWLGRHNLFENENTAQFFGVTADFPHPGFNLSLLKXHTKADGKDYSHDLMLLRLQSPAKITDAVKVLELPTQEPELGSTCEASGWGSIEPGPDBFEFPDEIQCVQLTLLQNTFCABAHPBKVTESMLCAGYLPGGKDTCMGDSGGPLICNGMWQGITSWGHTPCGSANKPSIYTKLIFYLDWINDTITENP
Procedure: (§1) To check the specificity of a compound found to have an inhibitory effect on human neurotrypsin, standard enzyme kinetic measurements with a set of common serine proteases were performed. A standard photometric assay with commercially available proteases and para-nitroanilide-coupled small peptide substrates was used.
(§2) Kallikrein from porcine pancreas (43 U/mg solid; Sigma Aldrich Chemie GmbH). Plasmin from human plasma (3.2 U/mg solid; Sigma Aldrich Chemie GmbH).
(§3) Bz-FVR-pNA: N-Benzoyl-Phe-Val-Arg-p-nitroanilide HCl, Bachem AG, CH-4416 Bubendorf, Switzerland.
(§4) The assay was performed in 100 mM Tris-HCl, 150 mM NaCl, 1 mM CaCl2, 5% DMSO, 0.1% PEG 6000, pH 8.0, with the appropriate amount of protease to measure initial velocities and varying amounts of peptide-p-nitroanilide substrates in a range smaller than 0.1 times KM. For inhibition studies 100 μM compound No. 7 were used. Measurements were done at 25° C. in a Cary 50 Spectrophotometer (VARIAN). Initial velocities were determined using various substrate concentrations below 0.1 times KM to be in the range of direct dependency of the initial velocity from the substrate concentration. Initial velocities were plotted against substrate concentrations in the absence or the presence of the candidate inhibitor No. 7. The compound was used in a concentration of 100 μM.

Factor Xa = molecular target: T2, Factor Xa (Bos taurus, UniProt P00743); assay: Specificity test, photometric pNA peptide substrate assay: factor Xa; assay type: biochemical, bovine; settings: 100 μM compound; substrate Bz-IEGR-pNA; 25° C.
T2 construct: purchased Sigma Aldrich Chemie GmbH; host or cells: bovine plasma
T2 sequence (P00743 234-492 limits assumed): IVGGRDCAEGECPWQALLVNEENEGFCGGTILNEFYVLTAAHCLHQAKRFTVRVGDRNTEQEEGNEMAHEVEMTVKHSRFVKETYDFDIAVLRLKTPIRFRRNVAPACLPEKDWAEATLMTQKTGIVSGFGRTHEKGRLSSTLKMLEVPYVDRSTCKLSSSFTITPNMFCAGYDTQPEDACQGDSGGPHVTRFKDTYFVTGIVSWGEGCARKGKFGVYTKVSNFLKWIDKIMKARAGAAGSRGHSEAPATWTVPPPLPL
T2 sequence (P00743 41-180 limits assumed): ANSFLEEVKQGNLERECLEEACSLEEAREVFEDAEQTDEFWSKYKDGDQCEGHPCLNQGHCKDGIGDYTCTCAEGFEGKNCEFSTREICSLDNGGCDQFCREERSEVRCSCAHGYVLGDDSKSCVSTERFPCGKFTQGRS
Procedure: as §1
Factor Xa activated from bovine plasma (6.1 mg protein/ml; Sigma Aldrich Chemie GmbH, D-89552 Steinheim, Germany).
Bz-IEGR-pNA: S-2222, Chromogenix-Instrumentation Laboratory SpA, 1-20128 Milano, Italy.
as §4

Plasmin = molecular target: T3, Plasmin (Homo sapiens, UniProt P00747); assay: Specificity test, photometric pNA peptide substrate assay: plasmin; assay type: biochemical; settings: 100 μM compound; substrate N-Tosyl-GPK-pNA; 25° C.
T3 construct: Plasmin from human plasma; purchased Sigma Aldrich Chemie GmbH; host or cells: human plasma
T3 sequence (P00747 581-810 limits assumed): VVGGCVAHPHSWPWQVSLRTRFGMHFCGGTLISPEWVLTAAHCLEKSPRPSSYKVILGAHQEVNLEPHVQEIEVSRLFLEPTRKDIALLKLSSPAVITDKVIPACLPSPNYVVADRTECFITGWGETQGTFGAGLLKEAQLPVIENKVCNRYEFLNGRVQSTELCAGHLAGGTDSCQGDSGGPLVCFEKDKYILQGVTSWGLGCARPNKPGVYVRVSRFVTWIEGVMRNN
T3 sequence (P00747 97-580 limits assumed): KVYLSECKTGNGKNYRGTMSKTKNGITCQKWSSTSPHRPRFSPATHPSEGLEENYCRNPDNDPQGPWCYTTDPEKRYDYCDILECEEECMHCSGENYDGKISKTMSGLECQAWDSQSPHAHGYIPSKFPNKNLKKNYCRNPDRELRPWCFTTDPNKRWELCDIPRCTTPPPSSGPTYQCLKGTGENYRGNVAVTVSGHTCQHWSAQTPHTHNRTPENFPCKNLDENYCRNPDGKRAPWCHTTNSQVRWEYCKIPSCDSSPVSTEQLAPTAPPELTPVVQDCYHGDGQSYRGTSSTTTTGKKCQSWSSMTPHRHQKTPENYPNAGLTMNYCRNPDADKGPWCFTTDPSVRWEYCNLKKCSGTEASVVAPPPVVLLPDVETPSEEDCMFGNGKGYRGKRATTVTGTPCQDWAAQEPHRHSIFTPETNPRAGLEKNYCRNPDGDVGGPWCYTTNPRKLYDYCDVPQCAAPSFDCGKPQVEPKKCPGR
Procedure: as §1, §2
N-Tosyl-GPK-pNA: N-Tosyl-Gly-Pro-Lys-p-nitroanilide, #90178, Fluka Chemie AG.
as §4

tPA = molecular target: T4, tPA (Homo sapiens, UniProt P00750); assay: Specificity test, photometric pNA peptide substrate assay: tPA; assay type: biochemical; settings: 100 μM compound; substrate IPR-pNA; 25° C.
T4 construct: purchased Dr. Karl Thomae GmbH Actilyse (10 mg)
T4 sequence (P00750 36-562): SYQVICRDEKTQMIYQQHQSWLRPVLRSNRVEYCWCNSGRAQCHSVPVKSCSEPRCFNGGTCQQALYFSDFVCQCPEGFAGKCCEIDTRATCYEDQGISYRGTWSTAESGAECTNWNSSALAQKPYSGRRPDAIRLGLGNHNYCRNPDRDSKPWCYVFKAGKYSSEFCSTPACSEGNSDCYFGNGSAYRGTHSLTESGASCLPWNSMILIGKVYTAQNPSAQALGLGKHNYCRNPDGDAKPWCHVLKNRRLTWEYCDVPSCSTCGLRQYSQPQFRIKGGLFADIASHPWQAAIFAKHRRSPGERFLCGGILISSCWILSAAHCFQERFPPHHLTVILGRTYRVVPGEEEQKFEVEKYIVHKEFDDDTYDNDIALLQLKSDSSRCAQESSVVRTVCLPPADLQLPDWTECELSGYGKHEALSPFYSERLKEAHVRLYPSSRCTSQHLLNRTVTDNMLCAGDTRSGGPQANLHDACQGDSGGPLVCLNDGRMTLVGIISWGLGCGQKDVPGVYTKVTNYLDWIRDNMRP
Procedure: as §1
tPA: Actilyse (10 mg; Dr. Karl Thomae GmbH, Birkendorfer Straβe 65, D-88397 Biberach, Germany).
IPR-pNA: S-2288, Chromogenix-Instrumentation Laboratory SpA.
as §4

mouse neurotrypsin = molecular target: T5, mouse neurotrypsin (Mus musculus, UniProt O08762); assay: Dose dependence of neurotrypsin inhibition (agrin-EGFP cleavage, Western blot); assay type: biochemical; settings: 0 to 200 μM compound; agrin-EGFP substrate; Western blot quantification; read-out: IC50 value (half-maximum amount of product)
T5 construct: made in house; host or cells: mouse myeloma cell line J558L
T5 sequence (O08762 22-761): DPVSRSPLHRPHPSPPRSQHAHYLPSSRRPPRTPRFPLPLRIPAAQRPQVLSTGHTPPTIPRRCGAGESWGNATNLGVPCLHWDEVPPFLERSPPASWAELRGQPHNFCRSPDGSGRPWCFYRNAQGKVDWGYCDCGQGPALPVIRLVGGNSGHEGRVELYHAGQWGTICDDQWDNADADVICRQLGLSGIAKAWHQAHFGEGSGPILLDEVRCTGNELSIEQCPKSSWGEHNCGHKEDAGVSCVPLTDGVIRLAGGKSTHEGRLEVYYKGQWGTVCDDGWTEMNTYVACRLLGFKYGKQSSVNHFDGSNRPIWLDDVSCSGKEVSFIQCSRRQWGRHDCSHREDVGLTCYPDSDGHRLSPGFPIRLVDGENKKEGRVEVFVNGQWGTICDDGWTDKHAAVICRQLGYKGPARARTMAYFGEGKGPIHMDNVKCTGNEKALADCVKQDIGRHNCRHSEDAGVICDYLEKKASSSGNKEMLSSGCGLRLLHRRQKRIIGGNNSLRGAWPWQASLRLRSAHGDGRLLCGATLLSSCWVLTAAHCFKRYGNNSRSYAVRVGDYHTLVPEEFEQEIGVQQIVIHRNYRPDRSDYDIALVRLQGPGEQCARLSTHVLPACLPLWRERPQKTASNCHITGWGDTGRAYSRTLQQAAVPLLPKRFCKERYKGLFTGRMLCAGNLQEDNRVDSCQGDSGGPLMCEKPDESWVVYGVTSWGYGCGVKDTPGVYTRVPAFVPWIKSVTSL
From the text: (A) Western blot detection of the 150 kDa C-terminal fragment of agrin (Ag-CF) generated by neurotrypsin-mediated cleavage of agrin-EGFP in dependence of the concentration of compound No. 7, N^1-amidino-N^4-(3,5-dibromosalicylidene)-sulfanilamide.
(B) Graphic plot of the intensity data from (A) against the inhibitor concentration with I=100% intensity for agrin+mouse neurotrypsin without addition of inhibitor compound No. 7.
(§5) The inhibitory activity of small-molecule compounds on the catalytic activity of neurotrypsin is measured in 150 mM NaCl, 5 mM CaCl2, 5% DMSO, 0.1% PEG 6000, and 20 mM MOPS, pH 7.5 in 0.5 ml low protein-binding Eppendorf tubes in a total volume of 15 μl. Human or murine neurotrypsin or catalytically active truncated versions of neurotrypsin are used at a concentration that results in cleavage of 80% of the substrate within 3 hours. As substrate, engineered soluble agrin, for example 0.1-1 μM agrin-EGFP (Example 20) or 0.1-3 μM engineered agrin-C45 (Example 21), is used. Inhibitor solution in 10 mM MOPS, pH 7.5, containing 5% DMSO is added to a final concentration of either 25 or 150 μM. […]
Different concentrations of compound No. 7 from 0 to 200 μM were tested with the assay described in Example 27 with engineered agrin-EGFP as substrate. The generated product was detected by Western blot (FIG. 17 A) and quantified (FIG. 17 B).

neurotrypsin = molecular target: T6, neurotrypsin (Homo sapiens, UniProt P56730); assay: Western blot-based screening assay for neurotrypsin inhibitors (agrin-EGFP cleavage); assay type: biochemical; settings: inhibitor 25 or 150 μM; agrin-EGFP substrate; 3 h at 37° C.; intensity of 150-kDa fragment on Western blot
T6 construct: Human or murine neurotrypsin or catalytically active truncated versions of neurotrypsin are used; made in house; host or cells: mouse myeloma cell line J558L
T6 sequence (P56730 21-875): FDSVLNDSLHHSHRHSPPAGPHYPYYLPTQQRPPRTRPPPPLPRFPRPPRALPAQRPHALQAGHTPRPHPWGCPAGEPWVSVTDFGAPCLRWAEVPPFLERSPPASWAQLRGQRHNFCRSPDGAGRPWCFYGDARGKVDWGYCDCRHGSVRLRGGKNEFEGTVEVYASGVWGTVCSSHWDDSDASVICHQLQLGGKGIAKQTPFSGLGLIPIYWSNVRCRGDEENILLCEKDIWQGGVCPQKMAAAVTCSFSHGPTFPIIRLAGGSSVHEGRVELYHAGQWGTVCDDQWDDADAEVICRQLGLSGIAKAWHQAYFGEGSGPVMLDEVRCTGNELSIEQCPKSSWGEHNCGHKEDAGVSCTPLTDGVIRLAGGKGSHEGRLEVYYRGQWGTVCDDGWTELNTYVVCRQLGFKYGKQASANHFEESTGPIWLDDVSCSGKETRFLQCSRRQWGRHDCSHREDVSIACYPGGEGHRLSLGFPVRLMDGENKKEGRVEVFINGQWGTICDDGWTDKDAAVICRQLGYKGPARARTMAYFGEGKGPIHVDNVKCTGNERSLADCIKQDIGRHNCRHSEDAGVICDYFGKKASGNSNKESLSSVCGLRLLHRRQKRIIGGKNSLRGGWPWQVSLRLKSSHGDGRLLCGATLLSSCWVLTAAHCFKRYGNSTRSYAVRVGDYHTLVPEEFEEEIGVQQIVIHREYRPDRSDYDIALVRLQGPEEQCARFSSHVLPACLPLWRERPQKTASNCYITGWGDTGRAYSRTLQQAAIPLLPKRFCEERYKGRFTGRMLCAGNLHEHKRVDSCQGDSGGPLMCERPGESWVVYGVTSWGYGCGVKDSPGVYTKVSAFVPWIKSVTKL
Procedure: Negative control (−): only agrin-EGFP without neurotrypsin. Positive control (+): agrin-EGFP with addition of neurotrypsin.
Compounds were dissolved in DMSO to a final concentration of 10 mM. For the assay the solution in DMSO was diluted with 10 mM MOPS, pH 7.5, to a concentration of 500 μM and 5% DMSO (1:20 dilution). Insoluble and precipitated material was removed by centrifugation (15 min, 16 krcf, RT). The cleared supernatant was used for the inhibition assay, as described in Example 27.
as §5, with “used.” for “used. Inhibitor solution in 10 mM MOPS, pH 7.5, containing 5% DMSO is added to a final concentration of either 25 or 150 μM.”
One way of substrate visualization is Western blotting. […] The intensity of the 150-kDa fragments of agrin-EGFP generated by neurotrypsin-mediated cleavage in the presence of the putative inhibitory compounds (FIG. 16 A) are measured and the relative intensities are plotted (FIG. 16 B).

Thrombin = molecular target: T7, Thrombin (Bos taurus, UniProt P00735); assay: Specificity test, photometric pNA peptide substrate assay: thrombin; assay type: biochemical, bovine; settings: 100 μM compound; substrate Bz-FVR-pNA; 25° C.
T7 construct: Thrombin from bovine plasma; purchased Merck; host or cells: bovine plasma
Procedure: as §1
(§6) Thrombin from bovine plasma (50 NIH/mg, Merck, D-64271 Darmstadt, Germany). Urokinase HS medac (100000 I.E.; medac Gesellschaft für klinische Spezialpräparate mbH, D-22880 Wedel, Germany).
as §3, §4

Trypsin = molecular target: T8, Trypsin (Sus scrofa, UniProt P00761); assay: Specificity test, photometric pNA peptide substrate assay: trypsin; assay type: biochemical, hog; settings: 100 μM compound; substrate Bz-FVR-pNA; 25° C.
T8 construct: Trypsin from hog pancreas; purchased Fluka Chemie AG; host or cells: hog pancreas
T8 sequence (P00761 9-231): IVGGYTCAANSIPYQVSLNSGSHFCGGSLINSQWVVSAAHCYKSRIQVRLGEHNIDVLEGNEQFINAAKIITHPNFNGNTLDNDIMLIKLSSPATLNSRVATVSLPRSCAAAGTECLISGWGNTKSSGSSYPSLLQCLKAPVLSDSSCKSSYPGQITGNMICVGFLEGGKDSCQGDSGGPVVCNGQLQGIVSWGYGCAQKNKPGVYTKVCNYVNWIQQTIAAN
Procedure: as §1
Trypsin from hog pancreas (16099 U/mg; Fluka Chemie AG, CH-9471 Buchs, Switzerland).
as §3, §4

Urokinase = molecular target: T9, Urokinase (Homo sapiens, UniProt P00749); assay: Specificity test, photometric pNA peptide substrate assay: urokinase; assay type: biochemical; settings: 100 μM compound; substrate Bz-VGR-pNA; 25° C.
T9 construct: purchased medac Gesellschaft für klinische Spezialpräparate mbH Urokinase HS medac (100000 I.E.)
Procedure: as §1, §6
Bz-VGR-pNA: N-Benzoyl-Val-Gly-Arg-p-nitroanilide, Sigma Aldrich Chemie GmbH.
as §4

N=C(N)NS(=O)(=O)c1ccc(N=Cc2cc(Br)cc(Br)c2O)cc1 [Compound No. 7, N^1-amidino-N^4-(3,5-dibromosalicylidene)-sulfanilamide]
inhibition of kallikrein (initial velocities) (Kallikrein): None of the investigated enzymes showed a significant inhibition; also recorded: No inhibition | inhibition of factor Xa (initial velocities) (Factor Xa): None of the investigated enzymes showed a significant inhibition; also recorded: No inhibition | inhibition of plasmin (initial velocities) (Plasmin): None of the investigated enzymes showed a significant inhibition; also recorded: No inhibition | inhibition of tPA (initial velocities) (tPA): None of the investigated enzymes showed a significant inhibition; also recorded: No inhibition | IC50 (mouse neurotrypsin): ~60 µM | inhibitory activity on neurotrypsin (neurotrypsin): significant inhibitory activity | inhibition of thrombin (initial velocities) (Thrombin): None of the investigated enzymes showed a significant inhibition; also recorded: No inhibition | inhibition of trypsin (initial velocities) (Trypsin): None of the investigated enzymes showed a significant inhibition; also recorded: No inhibition | inhibition of urokinase (initial velocities) (Urokinase): None of the investigated enzymes showed a significant inhibition; also recorded: No inhibition
